Data taken from paper PMC9891171, “Inhibition studies with simple and complex (in)organic anions of the γ-carbonic anhydrase from Mammaliicoccus (Staphylococcus) sciuri, MscCAγ” (Journal of Enzyme Inhibition and Medicinal Chemistry, 2023).

The molecules below were run against T1, MscCAγ (Mammaliicoccus sciuri, UniProt A0AB37HNM1) (assay: stopped-flow CO2 hydration assay). Details: read-out: KI (mM)^a / McsCAγ.
T1 construct: gene OWO77_11715
T1 sequence (A0AB37HNM1 1-169): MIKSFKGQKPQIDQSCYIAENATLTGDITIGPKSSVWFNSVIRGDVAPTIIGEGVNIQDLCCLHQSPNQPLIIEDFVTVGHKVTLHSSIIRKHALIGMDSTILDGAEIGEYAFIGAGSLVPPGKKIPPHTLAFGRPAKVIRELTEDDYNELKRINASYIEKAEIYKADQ
Format: biochemical

**Q.** For `CCN(CC)C(=S)S` [N,N-diethyldithiocarbamate], which Ki is on record?
**A.** Its Ki is 0.5 mM.

**Q.** With `O=S(=O)(O)NS(=O)(=O)O` [iminodisulfonate] as the molecule, how does the Ki read?
**A.** The Ki was 13.7 mM.

**Q.** With `[O]=[Re](=[O])(=[O])[OH]` [perrhenate] as the molecule, how does the Ki read?
**A.** The Ki was 4.4 mM.

**Q.** How did the Ki turn out when `OB(O)c1ccccc1` [phenylboronic acid] was run?
**A.** The Ki was 0.9 mM.

**Q.** How did the Ki turn out when `O=P(O)(O)OP(=O)(O)O` [pyrophosphate] was run?
**A.** Its Ki is 0.8 mM.

**Q.** With `N#C[SeH]` [selenocyanide] as the molecule, how does the Ki read?
**A.** The Ki was 32.5 mM.

**Q.** `NS(N)(=O)=O` [sulfamide] was tested. Which Ki did it give?
**A.** The Ki was 49.2 mM.

**Q.** How did the Ki turn out when `NS(=O)(=O)O` [sulphamic acid] was run?
**A.** The Ki was 25.2 mM.

**Q.** `S=C(S)S` [trithiocarbonate] was tested. Which Ki did it give?
**A.** Its Ki is 0.07 mM.
